Reference: US20080096894A1, “Anti-Bacterial Compounds” (ASTON UNIVERSITY, priority 2005, published 2008)
Converted amounts (≈) assume the structure as drawn. Like-named read-outs stand apart in the source and are kept apart here.

Columns and labels:
[1] = test system: vancomycin resistant enterococci; assay: MIC, agar dilution, multipoint inoculator; assay type: cell-based; conditions: one value printed for the seven vancomycin resistant enterococci cultures of Table 5; read-out: MIC
Experimental: This activity was measured using a multipoint inoculator method as follows. The MIC for each compound was measured using an agar dilution method (Onda, H., et al., Int. J. Antimicrob. Agents. 18, 263 (2001)) (Mueller Hinton agar) by means of a multipoint inoculator delivering 10^4 colony forming units per spot.
It will be noted that compound 4PYcq was active against all strains of MRSA as well as all other Gram positive bacteria. For this reason it was further tested against some vancomycin resistant enterococci, using the multipoint inoculator method described above. It can be seen from Table 5 that the high level activity was retained.

Propionibacterium acnes = assay: MIC against Propionibacterium acnes, microtitre double dilution in BHI; assay type: cell-based; conditions: Cutibacterium acnes, read-out: MIC
Experimental: Compounds 4PYcq and 4PYOfi were screened against one NCTC stain and seven clinical isolates of Propionibacterium acnes as described below.
Bacterial strains of Propionibacterium acnes, stored on beads at −20° C., were plated onto Brain heart infusion (BHI) agar plates. The cultures were incubated anaerobically for 4 days at 37° C.
Bacterial suspensions were prepared by diluting bacterial suspensions with BHI to obtain bacterial concentrations approximately 2×10^6 cfu/ml.
The test antimicrobial compounds were prepared by diluting the compound with appropriate nutrient broth to obtain correct stock solution. 50 μl of BHI were aliquoted onto the wells of the round-bottomed microtitre plate. 50 μl of the antimicrobial compounds were added onto the wells in the first column of the plate and several serial double dilutions were performed along the wells on each row. Following the series of double dilutions of the test compound the bacterial suspension were added onto each well except on the last column which served as a negative control. The lowest concentration of the test compound which inhibited bacterial growth was regarded as MIC of the compound.

[2] = test system: C. difficile (NCTC 11204 and thirty-two clinical isolates); assay: Minimum Bactericidal Concentration (MBC) against C. difficile, 99.9% kill; assay type: cell-based, Clostridium difficile; conditions: Clostridioides difficile, read-out: MBC
Experimental: (§1) Compounds 4PYcq and 4PYOfi were screened against one NCTC strain and thirty-two clinical isolates of Clostridium difficile as described below.
(§2) The antimicrobial compounds were prepared by adding 5.12 mg of each compound to 1 ml of DMSO. From each solution 100 μl was then aseptically transferred into 1 ml of sterile distilled water to give a concentration of 512 μg/ml. 100 μl of each diluted compound was then added to the first well of a sterile 96-well microliter plate. Serial dilutions were performed to give a concentration range spanning from 0 to 512 μg/ml of each compound. The microtiter plate containing the antimicrobials was left to equilibrate in an anaerobic cabinet for 3 hours before the addition of C. difficile cells. An overnight culture of C. difficile (NCTC 11204) was standardized to an OD^600 of 0.04 (approximately 10^6 CFU/ml), using Wilkins Chalgren broth and was vortexed for 60 seconds to ensure there was a uniform suspension. 100 μl of standardized culture was then added to each well of the microtiter plate, containing the equilibrated antimicrobials. The final concentrations of the antimicrobials in the wells therefore ranged from […] and the concentration of the culture was 10^5 CFU/ml in each well. The microtiter plate was incubated at 37° C., for 48 hours under anaerobic conditions. The MIC was determined as the lowest concentration of antimicrobial agent inhibiting the total growth of C. difficile cells. After incubation, the total solution from each well was aseptically spread onto a separate Wilkins chalgren agar plate. Plates were incubated for 48 hours, at 37° C., under anaerobic conditions. The number of colonies on each plate was counted after incubation and the MBC was determined as the lowest concentration of the antimicrobial agent at which 99.9% of organisms in the original inoculum were killed.

[3] = test system: C. difficile (NCTC 11204 and thirty-two clinical isolates); assay: Minimum Inhibitory Concentration (MIC) against C. difficile, microtiter plate, anaerobic, 48 hours; assay type: cell-based, Clostridium difficile; conditions: Clostridioides difficile, read-out: MIC
Experimental: as §1, §2

Acinetobater spp. = assay: activity against Acinetobacter spp.; assay type: cell-based; conditions: Gram-negative bacterium
[4] = Clostridium difficile Isolate 1
[5] = Clostridium difficile Isolate 2
[6] = Clostridium difficile Isolate 3
[7] = Clostridium difficile Isolate 4
[8] = Clostridium difficile Isolate 5
[9] = Clostridium difficile Isolate 6
[10] = Clostridium difficile Isolate 7
[11] = Clostridium difficile Isolate 8
[12] = Clostridium difficile Isolate 9
[13] = Clostridium difficile Isolate 10
[14] = Clostridium difficile Isolate 11
[15] = Clostridium difficile Isolate 12
[16] = Clostridium difficile Isolate 13
[17] = Clostridium difficile Isolate 14
[18] = Clostridium difficile Isolate 15
[19] = Clostridium difficile Isolate 16
[20] = Clostridium difficile Isolate 17
[21] = Clostridium difficile Isolate 18
[22] = Clostridium difficile Isolate 19
[23] = Clostridium difficile Isolate 20
[24] = Clostridium difficile Isolate 21
[25] = Clostridium difficile Isolate 22
[26] = Clostridium difficile Isolate 23
[27] = Clostridium difficile Isolate 24
[28] = Clostridium difficile Isolate 25
[29] = Clostridium difficile Isolate 26
[30] = Clostridium difficile Isolate 27
[31] = Clostridium difficile Isolate 28
[32] = Clostridium difficile Isolate 29
[33] = Clostridium difficile Isolate 30
[34] = Clostridium difficile Isolate 31
[35] = Clostridium difficile Isolate 32
[36] = Clostridium difficile NCTC 11204

`CC(C)(C)c1cc(/C=N/N=C(\N)c2ccncc2)c(O)c(C(C)(C)C)c1` [Compound 4PYcq] gave an MIC [1] of 2 to 4 µg/mL (≈ 5.67 to 11.3 µM), an MIC (Propionibacterium acnes; NCTC737, P. acnes NCTC 737) of 64 to 128 µg/mL (≈ 182 to 363 µM) and an MIC (Propionibacterium acnes; P. acnes Isolate 1) of 4 to 8 µg/mL (≈ 11.3 to 22.7 µM). The MIC (Propionibacterium acnes; P. acnes Isolate 2) was 32 to 64 µg/mL (≈ 90.8 to 182 µM), the MIC (Propionibacterium acnes; P. acnes Isolate 3) was 2 to 4 µg/mL (≈ 5.67 to 11.3 µM) and the MIC (Propionibacterium acnes; P. acnes Isolate 4) was 128 to 256 µg/mL (≈ 363 to 726 µM). The MIC (Propionibacterium acnes; P. acnes Isolate 5) was 64 to 128 µg/mL (≈ 182 to 363 µM), the MIC (Propionibacterium acnes; P. acnes Isolate 6) was 64 to 128 µg/mL (≈ 182 to 363 µM) and the MIC (Propionibacterium acnes; P. acnes Isolate 7) was > 256 µg/mL. For the same molecule, the MBC [2, 4] was 4 to 8 µg/mL (≈ 11.3 to 22.7 µM), the MBC [2, 5] was 4 to 8 µg/mL (≈ 11.3 to 22.7 µM) and the MBC [2, 6] was 2 to 4 µg/mL (≈ 5.67 to 11.3 µM). For the same molecule, the MBC [2, 7] was 2 to 4 µg/mL (≈ 5.67 to 11.3 µM), the MBC [2, 8] was 2 to 4 µg/mL (≈ 5.67 to 11.3 µM) and the MBC [2, 9] was 2 to 4 µg/mL (≈ 5.67 to 11.3 µM). For the same molecule, the MBC [2, 10] was 4 to 8 µg/mL (≈ 11.3 to 22.7 µM), the MBC [2, 11] was 4 to 8 µg/mL (≈ 11.3 to 22.7 µM) and the MBC [2, 12] was 4 to 8 µg/mL (≈ 11.3 to 22.7 µM). It also gave an MBC [2, 13] of 4 to 8 µg/mL (≈ 11.3 to 22.7 µM), an MBC [2, 14] of 2 to 4 µg/mL (≈ 5.67 to 11.3 µM) and an MBC [2, 15] of 4 to 8 µg/mL (≈ 11.3 to 22.7 µM). It also gave an MBC [2, 16] of 4 to 8 µg/mL (≈ 11.3 to 22.7 µM), an MBC [2, 17] of 4 to 8 µg/mL (≈ 11.3 to 22.7 µM) and an MBC [2, 18] of 4 to 8 µg/mL (≈ 11.3 to 22.7 µM). For the same molecule, the MBC [2, 19] was 4 to 8 µg/mL (≈ 11.3 to 22.7 µM), the MBC [2, 20] was 4 to 8 µg/mL (≈ 11.3 to 22.7 µM) and the MBC [2, 21] was 2 to 4 µg/mL (≈ 5.67 to 11.3 µM). The MBC [2, 22] was 4 to 8 µg/mL (≈ 11.3 to 22.7 µM), the MBC [2, 23] was 2 to 4 µg/mL (≈ 5.67 to 11.3 µM) and the MBC [2, 24] was 4 to 8 µg/mL (≈ 11.3 to 22.7 µM). The MBC [2, 25] was 2 to 4 µg/mL (≈ 5.67 to 11.3 µM), the MBC [2, 26] was 2 to 4 µg/mL (≈ 5.67 to 11.3 µM) and the MBC [2, 27] was 4 to 8 µg/mL (≈ 11.3 to 22.7 µM). For the same molecule, the MBC [2, 28] was 4 to 8 µg/mL (≈ 11.3 to 22.7 µM), the MBC [2, 29] was 8 to 16 µg/mL (≈ 22.7 to 45.4 µM) and the MBC [2, 30] was 4 to 8 µg/mL (≈ 11.3 to 22.7 µM). It also gave an MBC [2, 31] of 4 to 8 µg/mL (≈ 11.3 to 22.7 µM), an MBC [2, 32] of 4 to 8 µg/mL (≈ 11.3 to 22.7 µM) and an MBC [2, 33] of 2 to 4 µg/mL (≈ 5.67 to 11.3 µM). For the same molecule, the MBC [2, 34] was 4 to 8 µg/mL (≈ 11.3 to 22.7 µM), the MBC [2, 35] was 8 to 16 µg/mL (≈ 22.7 to 45.4 µM) and the MBC [2, 36] was 4 to 8 µg/mL (≈ 11.3 to 22.7 µM). For the same molecule, the MIC [3, 4] was 4 to 8 µg/mL (≈ 11.3 to 22.7 µM), the MIC [3, 5] was 2 to 4 µg/mL (≈ 5.67 to 11.3 µM) and the MIC [3, 6] was 2 to 4 µg/mL (≈ 5.67 to 11.3 µM). It also gave an MIC [3, 7] of 2 to 4 µg/mL (≈ 5.67 to 11.3 µM), an MIC [3, 8] of 2 to 4 µg/mL (≈ 5.67 to 11.3 µM) and an MIC [3, 9] of 2 to 4 µg/mL (≈ 5.67 to 11.3 µM). For the same molecule, the MIC [3, 10] was 4 to 8 µg/mL (≈ 11.3 to 22.7 µM), the MIC [3, 11] was 4 to 8 µg/mL (≈ 11.3 to 22.7 µM) and the MIC [3, 12] was 4 to 8 µg/mL (≈ 11.3 to 22.7 µM). It also gave an MIC [3, 13] of 2 to 4 µg/mL (≈ 5.67 to 11.3 µM), an MIC [3, 14] of 2 to 4 µg/mL (≈ 5.67 to 11.3 µM) and an MIC [3, 15] of 4 to 8 µg/mL (≈ 11.3 to 22.7 µM). For the same molecule, the MIC [3, 16] was 4 to 8 µg/mL (≈ 11.3 to 22.7 µM), the MIC [3, 17] was 4 to 8 µg/mL (≈ 11.3 to 22.7 µM) and the MIC [3, 18] was 4 to 8 µg/mL (≈ 11.3 to 22.7 µM). It also gave an MIC [3, 19] of 4 to 8 µg/mL (≈ 11.3 to 22.7 µM), an MIC [3, 20] of 2 to 4 µg/mL (≈ 5.67 to 11.3 µM) and an MIC [3, 21] of 2 to 4 µg/mL (≈ 5.67 to 11.3 µM). For the same molecule, the MIC [3, 22] was 4 to 8 µg/mL (≈ 11.3 to 22.7 µM), the MIC [3, 23] was 2 to 4 µg/mL (≈ 5.67 to 11.3 µM) and the MIC [3, 24] was 4 to 8 µg/mL (≈ 11.3 to 22.7 µM). It also gave an MIC [3, 25] of 2 to 4 µg/mL (≈ 5.67 to 11.3 µM), an MIC [3, 26] of 2 to 4 µg/mL (≈ 5.67 to 11.3 µM) and an MIC [3, 27] of 4 to 8 µg/mL (≈ 11.3 to 22.7 µM). It also gave an MIC [3, 28] of 4 to 8 µg/mL (≈ 11.3 to 22.7 µM), an MIC [3, 29] of 4 to 8 µg/mL (≈ 11.3 to 22.7 µM) and an MIC [3, 30] of 4 to 8 µg/mL (≈ 11.3 to 22.7 µM). The MIC [3, 31] was 4 to 8 µg/mL (≈ 11.3 to 22.7 µM), the MIC [3, 32] was 4 to 8 µg/mL (≈ 11.3 to 22.7 µM) and the MIC [3, 33] was 2 to 4 µg/mL (≈ 5.67 to 11.3 µM). It also gave an MIC [3, 34] of 4 to 8 µg/mL (≈ 11.3 to 22.7 µM), an MIC [3, 35] of 4 to 8 µg/mL (≈ 11.3 to 22.7 µM) and an MIC [3, 36] of 4 to 8 µg/mL (≈ 11.3 to 22.7 µM). The “activity against Acinetobater spp. (in words)” value (Acinetobater spp.) was “inactive”.
